How the values were obtained:
Test in all cases: radiometric filter-binding kinase assay
MAPKAPK5 (human) = MAPKAPK5 (human) (UniProt Q8IW41)
HIPK2 (human) = HIPK2 (human) (UniProt Q9H2X6)
MAPK10 (human) = MAPK10 (human) (UniProt P53779)
DYRK2 (human) = DYRK2 (human) (UniProt Q92630)
EPHA2 (human) = EPHA2 (human) (UniProt P29317)
MAP2K1 (human) = MAP2K1 (human) (UniProt Q02750)
YES1 (human) = YES1 (human) (UniProt P07947)
BRSK1 (human) = BRSK1 (human) (UniProt Q8TDC3)
DYRK3 (human) = DYRK3 (human) (UniProt O43781)
TBK1 (human) = TBK1 (human) (UniProt Q9UHD2)
Chain of TBK1 (human) (Q9UHD2 whole entry, looked up): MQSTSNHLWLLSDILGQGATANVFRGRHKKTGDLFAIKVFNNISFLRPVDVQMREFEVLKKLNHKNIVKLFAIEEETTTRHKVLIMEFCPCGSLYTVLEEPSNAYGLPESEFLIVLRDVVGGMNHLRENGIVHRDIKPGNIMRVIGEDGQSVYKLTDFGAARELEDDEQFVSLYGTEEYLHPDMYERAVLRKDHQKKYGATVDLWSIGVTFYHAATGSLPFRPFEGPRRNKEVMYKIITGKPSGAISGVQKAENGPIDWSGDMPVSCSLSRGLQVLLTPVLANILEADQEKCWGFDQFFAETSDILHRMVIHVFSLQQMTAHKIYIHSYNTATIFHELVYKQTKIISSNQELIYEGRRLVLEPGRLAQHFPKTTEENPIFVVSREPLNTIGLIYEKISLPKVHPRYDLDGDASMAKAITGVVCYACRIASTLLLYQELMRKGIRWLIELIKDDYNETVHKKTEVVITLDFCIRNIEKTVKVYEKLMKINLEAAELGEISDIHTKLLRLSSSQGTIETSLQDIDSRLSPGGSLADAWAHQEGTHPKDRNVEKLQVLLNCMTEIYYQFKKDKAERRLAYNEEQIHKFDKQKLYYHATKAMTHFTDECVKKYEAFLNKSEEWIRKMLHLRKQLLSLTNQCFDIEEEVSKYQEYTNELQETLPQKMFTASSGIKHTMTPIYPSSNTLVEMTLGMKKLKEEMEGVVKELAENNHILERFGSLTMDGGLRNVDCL

SYK (human) = SYK (human) (UniProt P43405)
CaMK1 (human) = CaMK1 (human) (UniProt Q14012)
[1] = system: RPS6KB1 (human), P23443 [T412E]
MARK3 (human) = MARK3 (human) (UniProt P27448)
MAPK11 (human) = MAPK11 (human) (UniProt Q15759)
Chain of MAPK11 (human) (Q15759 whole entry, looked up): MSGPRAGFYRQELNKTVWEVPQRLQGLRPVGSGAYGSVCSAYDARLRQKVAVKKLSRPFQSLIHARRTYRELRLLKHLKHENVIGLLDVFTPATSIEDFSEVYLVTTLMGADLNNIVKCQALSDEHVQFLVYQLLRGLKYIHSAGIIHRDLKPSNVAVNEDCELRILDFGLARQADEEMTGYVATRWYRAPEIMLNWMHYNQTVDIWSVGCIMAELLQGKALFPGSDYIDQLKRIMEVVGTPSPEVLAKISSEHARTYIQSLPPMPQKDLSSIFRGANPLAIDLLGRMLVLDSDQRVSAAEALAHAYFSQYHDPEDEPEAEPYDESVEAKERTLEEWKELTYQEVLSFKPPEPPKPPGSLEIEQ

[2] = system: AKT1 (human), P31749 [S473D]
PRKCA (human) = PRKCA (human) (UniProt P17252)
PIM1 (human) = PIM1 (human) (UniProt P11309)
Chain of PIM1 (human) (P11309 whole entry, looked up): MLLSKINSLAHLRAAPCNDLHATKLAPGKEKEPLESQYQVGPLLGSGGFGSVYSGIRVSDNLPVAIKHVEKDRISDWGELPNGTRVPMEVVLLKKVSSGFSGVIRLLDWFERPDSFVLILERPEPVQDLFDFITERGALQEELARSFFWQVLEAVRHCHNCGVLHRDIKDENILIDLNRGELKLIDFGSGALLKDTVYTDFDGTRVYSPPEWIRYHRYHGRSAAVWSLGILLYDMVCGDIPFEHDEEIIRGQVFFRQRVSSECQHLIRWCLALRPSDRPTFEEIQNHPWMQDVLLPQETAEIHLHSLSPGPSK

INSR (human) = INSR (human) (UniProt P06213)
BTK (human) = BTK (human) (UniProt Q06187)
Chain of BTK (human) (Q06187 whole entry, looked up): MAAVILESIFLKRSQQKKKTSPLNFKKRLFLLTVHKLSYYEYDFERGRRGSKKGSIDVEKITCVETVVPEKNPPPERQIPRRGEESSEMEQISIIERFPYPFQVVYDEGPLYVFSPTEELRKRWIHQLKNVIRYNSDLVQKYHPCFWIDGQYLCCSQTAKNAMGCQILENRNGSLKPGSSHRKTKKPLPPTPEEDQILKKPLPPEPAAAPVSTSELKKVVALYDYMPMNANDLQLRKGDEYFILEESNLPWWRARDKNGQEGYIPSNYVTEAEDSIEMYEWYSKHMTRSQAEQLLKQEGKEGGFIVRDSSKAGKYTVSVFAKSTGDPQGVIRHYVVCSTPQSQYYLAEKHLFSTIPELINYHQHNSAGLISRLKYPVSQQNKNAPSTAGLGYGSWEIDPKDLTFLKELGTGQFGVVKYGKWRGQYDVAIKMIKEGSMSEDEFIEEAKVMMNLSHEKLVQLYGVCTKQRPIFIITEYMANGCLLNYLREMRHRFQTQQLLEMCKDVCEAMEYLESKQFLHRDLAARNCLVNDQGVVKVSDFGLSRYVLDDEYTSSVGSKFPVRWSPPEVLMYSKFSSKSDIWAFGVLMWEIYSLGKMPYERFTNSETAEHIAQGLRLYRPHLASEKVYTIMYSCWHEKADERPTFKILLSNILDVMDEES

MAPK8 (human) = MAPK8 (human) (UniProt P45983)
Chain of MAPK8 (human) (P45983 whole entry, looked up): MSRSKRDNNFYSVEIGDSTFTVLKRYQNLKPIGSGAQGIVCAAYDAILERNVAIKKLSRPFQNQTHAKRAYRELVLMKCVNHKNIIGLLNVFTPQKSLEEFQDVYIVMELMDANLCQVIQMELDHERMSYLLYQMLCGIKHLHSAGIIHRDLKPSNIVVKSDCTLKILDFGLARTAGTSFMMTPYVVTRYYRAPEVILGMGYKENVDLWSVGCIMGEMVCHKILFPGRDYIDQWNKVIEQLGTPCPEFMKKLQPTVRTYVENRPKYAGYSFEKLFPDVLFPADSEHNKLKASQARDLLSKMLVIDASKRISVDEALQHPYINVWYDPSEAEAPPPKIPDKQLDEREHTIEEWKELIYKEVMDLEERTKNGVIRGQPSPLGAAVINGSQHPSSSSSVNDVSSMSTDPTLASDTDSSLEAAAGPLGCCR

MAPK9 (human) = MAPK9 (human) (UniProt P45984)
HIPK1 (human) = HIPK1 (human) (UniProt Q86Z02)
STK3 (human) = STK3 (human) (UniProt Q13188)
BRSK2 (human) = BRSK2 (human) (UniProt Q8IWQ3)
FLT1 (human) = FLT1 (human) (UniProt P17948)
Chain of FLT1 (human) (P17948 whole entry, looked up): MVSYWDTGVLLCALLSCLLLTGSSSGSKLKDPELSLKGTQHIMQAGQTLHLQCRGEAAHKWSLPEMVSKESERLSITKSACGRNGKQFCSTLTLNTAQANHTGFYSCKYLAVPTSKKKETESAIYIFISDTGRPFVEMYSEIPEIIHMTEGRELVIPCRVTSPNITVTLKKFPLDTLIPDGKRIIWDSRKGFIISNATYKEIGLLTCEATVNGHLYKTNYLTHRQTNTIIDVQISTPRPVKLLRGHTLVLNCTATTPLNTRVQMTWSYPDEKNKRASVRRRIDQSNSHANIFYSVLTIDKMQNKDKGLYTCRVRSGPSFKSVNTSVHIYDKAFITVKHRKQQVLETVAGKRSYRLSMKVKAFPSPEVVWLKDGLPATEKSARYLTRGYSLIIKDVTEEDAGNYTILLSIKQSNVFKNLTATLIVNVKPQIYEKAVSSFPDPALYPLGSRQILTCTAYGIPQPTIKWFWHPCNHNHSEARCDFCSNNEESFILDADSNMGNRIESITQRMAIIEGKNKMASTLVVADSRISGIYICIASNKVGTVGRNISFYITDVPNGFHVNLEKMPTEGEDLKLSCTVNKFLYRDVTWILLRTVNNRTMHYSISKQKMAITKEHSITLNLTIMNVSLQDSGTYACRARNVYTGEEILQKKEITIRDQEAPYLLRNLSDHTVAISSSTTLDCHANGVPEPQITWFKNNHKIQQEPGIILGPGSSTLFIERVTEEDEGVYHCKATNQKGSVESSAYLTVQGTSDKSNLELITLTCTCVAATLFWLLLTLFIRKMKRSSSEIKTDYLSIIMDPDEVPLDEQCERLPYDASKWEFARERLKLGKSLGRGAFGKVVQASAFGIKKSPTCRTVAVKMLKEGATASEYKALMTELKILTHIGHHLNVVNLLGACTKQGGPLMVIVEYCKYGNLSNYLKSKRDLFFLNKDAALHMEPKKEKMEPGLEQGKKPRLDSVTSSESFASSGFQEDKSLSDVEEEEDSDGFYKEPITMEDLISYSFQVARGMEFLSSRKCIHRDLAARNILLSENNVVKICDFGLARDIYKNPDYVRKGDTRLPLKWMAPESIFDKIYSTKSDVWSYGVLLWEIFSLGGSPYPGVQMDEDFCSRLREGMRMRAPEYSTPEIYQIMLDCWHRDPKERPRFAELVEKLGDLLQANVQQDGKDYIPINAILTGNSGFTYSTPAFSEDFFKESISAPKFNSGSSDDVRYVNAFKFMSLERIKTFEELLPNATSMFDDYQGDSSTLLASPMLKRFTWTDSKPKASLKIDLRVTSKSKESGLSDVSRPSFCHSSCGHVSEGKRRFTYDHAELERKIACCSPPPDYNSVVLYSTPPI

MAP3K11 (human) = MAP3K11 (human) (UniProt Q16584)
AURKA (human) = AURKA (human) (UniProt O14965)
GCK (human) = GCK (human) (UniProt Q12851)

Chain of HIPK2 (human) (Q9H2X6 whole entry, looked up): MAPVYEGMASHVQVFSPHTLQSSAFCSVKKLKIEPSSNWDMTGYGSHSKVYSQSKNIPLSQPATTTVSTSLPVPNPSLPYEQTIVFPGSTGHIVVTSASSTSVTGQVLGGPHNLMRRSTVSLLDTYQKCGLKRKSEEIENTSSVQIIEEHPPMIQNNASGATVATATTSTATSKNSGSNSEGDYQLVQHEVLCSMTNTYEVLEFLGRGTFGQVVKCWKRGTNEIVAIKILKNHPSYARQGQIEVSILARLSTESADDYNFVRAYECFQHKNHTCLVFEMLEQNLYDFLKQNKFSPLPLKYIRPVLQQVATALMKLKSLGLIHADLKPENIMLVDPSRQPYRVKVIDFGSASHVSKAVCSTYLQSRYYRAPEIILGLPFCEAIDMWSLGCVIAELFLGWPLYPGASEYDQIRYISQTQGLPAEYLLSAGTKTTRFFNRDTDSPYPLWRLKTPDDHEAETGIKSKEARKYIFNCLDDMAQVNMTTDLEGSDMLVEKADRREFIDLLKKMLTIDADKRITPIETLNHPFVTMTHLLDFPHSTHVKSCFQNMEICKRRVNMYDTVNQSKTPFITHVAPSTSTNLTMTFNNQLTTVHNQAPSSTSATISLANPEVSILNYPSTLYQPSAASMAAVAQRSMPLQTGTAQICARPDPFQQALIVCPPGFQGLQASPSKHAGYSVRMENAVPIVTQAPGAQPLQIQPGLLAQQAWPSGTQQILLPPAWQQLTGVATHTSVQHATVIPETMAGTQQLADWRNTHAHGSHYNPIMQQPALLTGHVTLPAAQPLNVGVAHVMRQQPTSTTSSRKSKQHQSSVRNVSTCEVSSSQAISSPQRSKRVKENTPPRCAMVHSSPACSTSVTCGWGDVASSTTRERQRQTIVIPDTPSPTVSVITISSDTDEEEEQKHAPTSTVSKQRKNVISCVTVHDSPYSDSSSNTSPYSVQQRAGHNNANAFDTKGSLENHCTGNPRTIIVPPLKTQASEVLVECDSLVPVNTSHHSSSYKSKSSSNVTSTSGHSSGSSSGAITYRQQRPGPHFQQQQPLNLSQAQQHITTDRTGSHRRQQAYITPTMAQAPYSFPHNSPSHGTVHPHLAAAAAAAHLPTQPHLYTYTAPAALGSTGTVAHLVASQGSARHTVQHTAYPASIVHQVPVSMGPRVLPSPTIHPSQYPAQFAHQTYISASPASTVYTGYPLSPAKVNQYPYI

## CN1C(=O)[C@@H](Cc2c[nH]c3ccccc23)NC1=S
MAPKAPK5 (human); compound 1.0 µM
  residual activity: 88%
MAPKAPK5 (human); compound 10.0 µM
  residual activity: 87%
HIPK2 (human); compound 1.0 µM
  residual activity: 81%
HIPK2 (human); compound 10.0 µM
  residual activity: 88%
MAPK10 (human); compound 1.0 µM
  residual activity: 99%
MAPK10 (human); compound 10.0 µM
  residual activity: 110%
DYRK2 (human); compound 1.0 µM
  residual activity: 105%
DYRK2 (human); compound 10.0 µM
  residual activity: 107%
EPHA2 (human); compound 1.0 µM
  residual activity: 102%
EPHA2 (human); compound 10.0 µM
  residual activity: 96%
MAP2K1 (human); compound 1.0 µM
  residual activity: 85%
MAP2K1 (human); compound 10.0 µM
  residual activity: 109%
YES1 (human); compound 1.0 µM
  residual activity: 107%
YES1 (human); compound 10.0 µM
  residual activity: 92%
BRSK1 (human); compound 1.0 µM
  residual activity: 101%
BRSK1 (human); compound 10.0 µM
  residual activity: 103%
DYRK3 (human); compound 1.0 µM
  residual activity: 90%
DYRK3 (human); compound 10.0 µM
  residual activity: 82%
TBK1 (human); compound 1.0 µM
  residual activity: 87%
TBK1 (human); compound 10.0 µM
  residual activity: 96%
SYK (human); compound 1.0 µM
  residual activity: 84%
SYK (human); compound 10.0 µM
  residual activity: 125%
CaMK1 (human); compound 1.0 µM
  residual activity: 94%
CaMK1 (human); compound 10.0 µM
  residual activity: 94%
[1]; compound 1.0 µM
  residual activity: 83%
[1]; compound 10.0 µM
  residual activity: 99%
MARK3 (human); compound 1.0 µM
  residual activity: 94%
MARK3 (human); compound 10.0 µM
  residual activity: 98%
MAPK11 (human); compound 1.0 µM
  residual activity: 91%
MAPK11 (human); compound 10.0 µM
  residual activity: 88%
[2]; compound 1.0 µM
  residual activity: 96%
[2]; compound 10.0 µM
  residual activity: 91%
PRKCA (human); compound 1.0 µM
  residual activity: 97%
PRKCA (human); compound 10.0 µM
  residual activity: 96%
PIM1 (human); compound 1.0 µM
  residual activity: 87%
PIM1 (human); compound 10.0 µM
  residual activity: 94%
INSR (human); compound 1.0 µM
  residual activity: 88%
INSR (human); compound 10.0 µM
  residual activity: 106%
BTK (human); compound 1.0 µM
  residual activity: 99%
BTK (human); compound 10.0 µM
  residual activity: 89%
MAPK8 (human); compound 1.0 µM
  residual activity: 85%
MAPK8 (human); compound 10.0 µM
  residual activity: 79%
MAPK9 (human); compound 1.0 µM
  residual activity: 85%
MAPK9 (human); compound 10.0 µM
  residual activity: 88%
HIPK1 (human); compound 1.0 µM
  residual activity: 91%
HIPK1 (human); compound 10.0 µM
  residual activity: 91%
STK3 (human); compound 1.0 µM
  residual activity: 94%
STK3 (human); compound 10.0 µM
  residual activity: 104%
BRSK2 (human); compound 1.0 µM
  residual activity: 91%
BRSK2 (human); compound 10.0 µM
  residual activity: 85%
FLT1 (human); compound 1.0 µM
  residual activity: 91%
FLT1 (human); compound 10.0 µM
  residual activity: 88%
MAP3K11 (human); compound 1.0 µM
  residual activity: 109%
MAP3K11 (human); compound 10.0 µM
  residual activity: 109%
AURKA (human); compound 1.0 µM
  residual activity: 101%
AURKA (human); compound 10.0 µM
  residual activity: 102%
GCK (human); compound 1.0 µM
  residual activity: 110%
GCK (human); compound 10.0 µM
  residual activity: 89%

## NC(=O)Nc1ccc2c(c1)/C(=C/c1cc(-c3cccnc3)c[nH]1)C(=O)N2
MAPKAPK5 (human); compound 0.1 µM
  residual activity: 95%
MAPKAPK5 (human); compound 1.0 µM
  residual activity: 50%
MAPKAPK5 (human); compound 10.0 µM
  residual activity: 8%
HIPK2 (human); compound 0.1 µM
  residual activity: 33%
HIPK2 (human); compound 1.0 µM
  residual activity: 7%
HIPK2 (human); compound 10.0 µM
  residual activity: 1%
DYRK2 (human); compound 0.1 µM
  residual activity: 19%
DYRK2 (human); compound 1.0 µM
  residual activity: 2%
DYRK2 (human); compound 10.0 µM
  residual activity: 0%
EPHA2 (human); compound 0.1 µM
  residual activity: 93%
EPHA2 (human); compound 1.0 µM
  residual activity: 54%
EPHA2 (human); compound 10.0 µM
  residual activity: 20%
MAP2K1 (human); compound 0.1 µM
  residual activity: 8%
MAP2K1 (human); compound 1.0 µM
  residual activity: 1%
MAP2K1 (human); compound 10.0 µM
  residual activity: 2%
YES1 (human); compound 0.1 µM
  residual activity: 32%
YES1 (human); compound 1.0 µM
  residual activity: 8%
YES1 (human); compound 10.0 µM
  residual activity: 3%
DYRK3 (human); compound 0.1 µM
  residual activity: 19%
DYRK3 (human); compound 1.0 µM
  residual activity: 4%
DYRK3 (human); compound 10.0 µM
  residual activity: 1%
TBK1 (human); compound 0.1 µM
  residual activity: 27%
TBK1 (human); compound 1.0 µM
  residual activity: 7%
TBK1 (human); compound 10.0 µM
  residual activity: 11%
SYK (human); compound 1.0 µM
  residual activity: 40%
SYK (human); compound 10.0 µM
  residual activity: 7%
CaMK1 (human); compound 0.1 µM
  residual activity: 112%
CaMK1 (human); compound 1.0 µM
  residual activity: 69%
CaMK1 (human); compound 10.0 µM
  residual activity: 19%
[1]; compound 0.1 µM
  residual activity: 76%
[1]; compound 1.0 µM
  residual activity: 32%
[1]; compound 10.0 µM
  residual activity: 12%
MARK3 (human); compound 0.1 µM
  residual activity: 16%
MARK3 (human); compound 1.0 µM
  residual activity: 5%
MARK3 (human); compound 10.0 µM
  residual activity: 3%
MAPK11 (human); compound 0.1 µM
  residual activity: 103%
MAPK11 (human); compound 1.0 µM
  residual activity: 80%
MAPK11 (human); compound 10.0 µM
  residual activity: 49%
[2]; compound 0.1 µM
  residual activity: 85%
[2]; compound 1.0 µM
  residual activity: 69%
[2]; compound 10.0 µM
  residual activity: 62%
PRKCA (human); compound 0.1 µM
  residual activity: 106%
PRKCA (human); compound 1.0 µM
  residual activity: 83%
PRKCA (human); compound 10.0 µM
  residual activity: 27%
PIM1 (human); compound 0.1 µM
  residual activity: 43%
PIM1 (human); compound 1.0 µM
  residual activity: 9%
PIM1 (human); compound 10.0 µM
  residual activity: 2%
INSR (human); compound 0.1 µM
  residual activity: 112%
INSR (human); compound 1.0 µM
  residual activity: 101%
INSR (human); compound 10.0 µM
  residual activity: 26%
BTK (human); compound 0.1 µM
  residual activity: 86%
BTK (human); compound 1.0 µM
  residual activity: 29%
BTK (human); compound 10.0 µM
  residual activity: 9%
MAPK8 (human); compound 0.1 µM
  residual activity: 124%
MAPK8 (human); compound 1.0 µM
  residual activity: 99%
MAPK8 (human); compound 10.0 µM
  residual activity: 48%
MAPK9 (human); compound 1.0 µM
  residual activity: 43%
MAPK9 (human); compound 10.0 µM
  residual activity: 17%
STK3 (human); compound 0.1 µM
  residual activity: 8%
STK3 (human); compound 1.0 µM
  residual activity: 2%
STK3 (human); compound 10.0 µM
  residual activity: 0%
BRSK2 (human); compound 0.1 µM
  residual activity: 13%
BRSK2 (human); compound 1.0 µM
  residual activity: 10%
BRSK2 (human); compound 10.0 µM
  residual activity: 18%
FLT1 (human); compound 0.1 µM
  residual activity: 7%
FLT1 (human); compound 1.0 µM
  residual activity: 3%
FLT1 (human); compound 10.0 µM
  residual activity: 1%

## O=C1Nc2nc(-c3c(O)cccc3OCC3CC3)cc(C3CCCNC3)c2CO1 (stereo unspecified)
MAPKAPK5 (human); compound 1.0 µM
  residual activity: 74%
MAPKAPK5 (human); compound 10.0 µM
  residual activity: 58%
HIPK2 (human); compound 1.0 µM
  residual activity: 84%
HIPK2 (human); compound 10.0 µM
  residual activity: 34%
DYRK2 (human); compound 1.0 µM
  residual activity: 99%
DYRK2 (human); compound 10.0 µM
  residual activity: 77%
EPHA2 (human); compound 1.0 µM
  residual activity: 96%
EPHA2 (human); compound 10.0 µM
  residual activity: 84%
MAP2K1 (human); compound 1.0 µM
  residual activity: 79%
MAP2K1 (human); compound 10.0 µM
  residual activity: 62%
YES1 (human); compound 1.0 µM
  residual activity: 94%
YES1 (human); compound 10.0 µM
  residual activity: 49%
DYRK3 (human); compound 1.0 µM
  residual activity: 71%
DYRK3 (human); compound 10.0 µM
  residual activity: 24%
TBK1 (human); compound 1.0 µM
  residual activity: 91%
TBK1 (human); compound 10.0 µM
  residual activity: 84%
SYK (human); compound 1.0 µM
  residual activity: 106%
SYK (human); compound 10.0 µM
  residual activity: 91%
CaMK1 (human); compound 1.0 µM
  residual activity: 54%
CaMK1 (human); compound 10.0 µM
  residual activity: 13%
[1]; compound 1.0 µM
  residual activity: 102%
[1]; compound 10.0 µM
  residual activity: 68%
MARK3 (human); compound 1.0 µM
  residual activity: 100%
MARK3 (human); compound 10.0 µM
  residual activity: 94%
MAPK11 (human); compound 1.0 µM
  residual activity: 91%
MAPK11 (human); compound 10.0 µM
  residual activity: 74%
[2]; compound 1.0 µM
  residual activity: 87%
[2]; compound 10.0 µM
  residual activity: 55%
PRKCA (human); compound 1.0 µM
  residual activity: 77%
PRKCA (human); compound 10.0 µM
  residual activity: 31%
PIM1 (human); compound 1.0 µM
  residual activity: 76%
PIM1 (human); compound 10.0 µM
  residual activity: 15%
INSR (human); compound 1.0 µM
  residual activity: 94%
INSR (human); compound 10.0 µM
  residual activity: 96%
BTK (human); compound 1.0 µM
  residual activity: 100%
BTK (human); compound 10.0 µM
  residual activity: 83%
MAPK8 (human); compound 1.0 µM
  residual activity: 76%
MAPK8 (human); compound 10.0 µM
  residual activity: 61%
MAPK9 (human); compound 1.0 µM
  residual activity: 90%
MAPK9 (human); compound 10.0 µM
  residual activity: 93%
STK3 (human); compound 1.0 µM
  residual activity: 84%
STK3 (human); compound 10.0 µM
  residual activity: 67%
BRSK2 (human); compound 1.0 µM
  residual activity: 89%
BRSK2 (human); compound 10.0 µM
  residual activity: 45%
FLT1 (human); compound 1.0 µM
  residual activity: 112%
FLT1 (human); compound 10.0 µM
  residual activity: 116%

— the kinase profiling compilation of Christmann-Franck et al. (2016)
